{"source": "PubChem BioAssay AID248", "about": "(DTP/NCI, 2004)", "tested_on": "L1210 leukemia ip in BDF1 mice, survival T/C", "experiment": "NCI In Vivo Anticancer Drug Screen. Data for tumor model L1210 Leukemia (intraperitoneal) in B6D2F1 (BDF1) mice", "conditions": "endpoint: mean survival time, higher = longer survival", "in_short": "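Mice bearing the transplanted tumor received compound or vehicle. Survival of the treated group was divided by that of the vehicle-treated control group to give the ratio.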", "key": {"[1]": {"conditions": "dose: 100.0 mg/kg/injection, schedule: Q01DX001 (ip), vehicle: saline"}, "[2]": {"conditions": "dose: 200.0 mg/kg/injection, schedule: Q01DX001 (ip), vehicle: saline"}, "[3]": {"conditions": "dose: 400.0 mg/kg/injection, schedule: Q01DX001 (ip), vehicle: saline"}, "[4]": {"conditions": "dose: 10.0 mg/kg/injection, schedule: Q01DX Z (ip), vehicle: carboxymethylcellulose (CMC)"}, "[5]": {"conditions": "dose: 50.0 mg/kg/injection, schedule: Q01DX001 (ip), vehicle: carboxymethylcellulose (CMC)"}, "[6]": {"conditions": "dose: 100.0 mg/kg/injection, schedule: Q01DX001 (ip), vehicle: carboxymethylcellulose (CMC)"}, "[7]": {"conditions": "dose: 200.0 mg/kg/injection, schedule: Q01DX001 (ip), vehicle: carboxymethylcellulose (CMC)"}, "[8]": {"conditions": "dose: 400.0 mg/kg/injection, schedule: Q01DX001 (ip), vehicle: carboxymethylcellulose (CMC)"}, "[9]": {"conditions": "dose: 100.0 mg/kg/injection, schedule: Q04DX003 (ip), vehicle: Klucel (hydroxypropylcellulose) (HPC)"}}, "note": "“And” between values parts separate entries of the source, which are not always exact repeats. Equal values may be shown once. Inconclusive results and toxic doses are left out.", "data": [{"compound": "O=c1[nH]cccc1CCc1ccccc1", "values": [{"measurement": "T/C", "setting": "[1]", "value": "103 % of control"}, {"measurement": "T/C", "setting": "[2]", "value": "105 % of control"}, {"measurement": "T/C", "setting": "[3]", "value": "111 % of control"}]}, {"compound": "N#CCCC(=O)c1ccccn1", "values": [{"measurement": "T/C", "setting": "dose: 200.0 mg/kg/injection, schedule: Q01DX009 (ip), vehicle: Klucel (hydroxypropylcellulose) (HPC)", "value": "100 % of control"}, {"measurement": "T/C", "setting": "dose: 400.0 mg/kg/injection, schedule: Q01DX009 (ip), vehicle: Klucel (hydroxypropylcellulose) (HPC)", "value": "93 % of control"}]}, {"compound": "O=C(Nc1ccc(Cl)cc1C(F)(F)F)Oc1ccc(OCc2ccccc2)cc1", "values": [{"measurement": "T/C", "setting": "dose: 100.0 mg/kg/injection, schedule: Q01DX009 (ip), vehicle: saline with Tween-80", "value": "94 % of control"}, {"measurement": "T/C", "setting": "dose: 200.0 mg/kg/injection, schedule: Q01DX009 (ip), vehicle: saline with Tween-80", "value": "100 % of control"}, {"measurement": "T/C", "setting": "dose: 400.0 mg/kg/injection, schedule: Q01DX009 (ip), vehicle: saline with Tween-80", "value": "92 % of control"}]}, {"compound": "O=C(NCC(O)CNC(=O)Nc1ccc(C2=NCCCN2)cc1)Nc1ccc(C2=NCCCN2)cc1", "values": [{"measurement": "T/C", "setting": "dose: 1.25 mg/kg/injection, schedule: Q01DX Z (ip), vehicle: carboxymethylcellulose (CMC)", "value": "98 % of control"}, {"measurement": "T/C", "setting": "dose: 2.5 mg/kg/injection, schedule: Q01DX Z (ip), vehicle: carboxymethylcellulose (CMC)", "value": "101 % of control"}, {"measurement": "T/C", "setting": "dose: 5.0 mg/kg/injection, schedule: Q01DX Z (ip), vehicle: carboxymethylcellulose (CMC)", "value": "90 % of control"}, {"measurement": "T/C", "setting": "[4]", "value": "97 % of control and 106 % of control"}, {"measurement": "T/C", "setting": "dose: 20.0 mg/kg/injection, schedule: Q01DX Z (ip), vehicle: carboxymethylcellulose (CMC)", "value": "104 % of control"}]}, {"compound": "Cc1ccc2cc(-c3ccc(C4CCCCC4)cc3)c(N=O)n2c1", "values": [{"measurement": "T/C", "setting": "[5]", "value": "93 % of control"}, {"measurement": "T/C", "setting": "[6]", "value": "96 % of control"}, {"measurement": "T/C", "setting": "[7]", "value": "90 % of control"}, {"measurement": "T/C", "setting": "[8]", "value": "90 % of control"}]}, {"compound": "O=C1c2ccccc2C(=O)c2c1ccc(C1C(=O)c3ccccc3C1=O)c2-c1c(C2C(=O)c3ccccc3C2=O)ccc2c1C(=O)c1ccccc1C2=O", "values": [{"measurement": "T/C", "setting": "[1]", "value": "95 % of control"}, {"measurement": "T/C", "setting": "[2]", "value": "95 % of control"}, {"measurement": "T/C", "setting": "[3]", "value": "97 % of control"}]}, {"compound": "CNC(=O)N(C)N=O", "values": [{"measurement": "T/C", "setting": "[4]", "value": "92 % of control"}, {"measurement": "T/C", "setting": "dose: 75.0 mg/kg/injection, schedule: Q01DX Z (ip), vehicle: carboxymethylcellulose (CMC)", "value": "157 % of control and 168 % of control"}, {"measurement": "T/C", "setting": "dose: 100.0 mg/kg/injection, schedule: Q01DX Z (ip), vehicle: carboxymethylcellulose (CMC)", "value": "155 % of control"}, {"measurement": "T/C", "setting": "dose: 125.0 mg/kg/injection, schedule: Q01DX Z (ip), vehicle: carboxymethylcellulose (CMC)", "value": "101 % of control"}]}, {"compound": "COC(=O)CCCN1CC2C=C(C#N)C1C(C(=O)OC)C2", "note": "(centres undefined)", "values": [{"measurement": "T/C", "setting": "dose: 150.0 mg/kg/injection, schedule: Q01DX001 (ip), vehicle: saline", "value": "93 % of control"}, {"measurement": "T/C", "setting": "dose: 300.0 mg/kg/injection, schedule: Q01DX001 (ip), vehicle: saline", "value": "93 % of control"}]}, {"compound": "O=C1OC2(CCN(Cc3ccccc3)CC2)C(=O)N1c1cccc(Cl)c1", "values": [{"measurement": "T/C", "setting": "[6]", "value": "92 % of control"}, {"measurement": "T/C", "setting": "[7]", "value": "106 % of control"}, {"measurement": "T/C", "setting": "[8]", "value": "97 % of control"}]}, {"compound": "O=C1NC(=S)S/C1=C\\c1ccncc1", "values": [{"measurement": "T/C", "setting": "[5]", "value": "94 % of control"}, {"measurement": "T/C", "setting": "[6]", "value": "89 % of control"}, {"measurement": "T/C", "setting": "[7]", "value": "92 % of control"}, {"measurement": "T/C", "setting": "[8]", "value": "99 % of control"}]}, {"compound": "C[PH+](c1ccccc1)c1ccccc1.C[PH+](c1ccccc1)c1ccccc1.O=C([S-])[S-].[Pd+2]", "values": [{"measurement": "T/C", "setting": "dose: 50.0 mg/kg/injection, schedule: Q04DX003 (ip), vehicle: saline", "value": "100 % of control"}, {"measurement": "T/C", "setting": "dose: 100.0 mg/kg/injection, schedule: Q04DX003 (ip), vehicle: saline", "value": "100 % of control"}, {"measurement": "T/C", "setting": "dose: 200.0 mg/kg/injection, schedule: Q04DX003 (ip), vehicle: saline", "value": "94 % of control"}]}, {"compound": "NNC(=O)c1ccccc1[N+](=O)[O-]", "values": [{"measurement": "T/C", "setting": "dose: 25.0 mg/kg/injection, schedule: Q01DX009 (ip), vehicle: Klucel (hydroxypropylcellulose) (HPC)", "value": "95 % of control"}, {"measurement": "T/C", "setting": "dose: 50.0 mg/kg/injection, schedule: Q01DX009 (ip), vehicle: Klucel (hydroxypropylcellulose) (HPC)", "value": "94 % of control"}, {"measurement": "T/C", "setting": "dose: 50.0 mg/kg/injection, schedule: Q04DX003 (ip), vehicle: Klucel (hydroxypropylcellulose) (HPC)", "value": "100 % of control"}, {"measurement": "T/C", "setting": "dose: 100.0 mg/kg/injection, schedule: Q01DX009 (ip), vehicle: Klucel (hydroxypropylcellulose) (HPC)", "value": "101 % of control"}, {"measurement": "T/C", "setting": "[9]", "value": "100 % of control"}]}, {"compound": "CS(=O)(=O)CCC(C#N)(CCS(C)(=O)=O)c1ccccc1", "values": [{"measurement": "T/C", "setting": "[9]", "value": "110 % of control"}, {"measurement": "T/C", "setting": "dose: 200.0 mg/kg/injection, schedule: Q04DX003 (ip), vehicle: Klucel (hydroxypropylcellulose) (HPC)", "value": "100 % of control"}, {"measurement": "T/C", "setting": "dose: 400.0 mg/kg/injection, schedule: Q04DX003 (ip), vehicle: Klucel (hydroxypropylcellulose) (HPC)", "value": "102 % of control"}]}]}
